Experimental data taken from US20220211605A1, “AGENT FOR PROTECTION AGAINST ATMOSPHERIC POLLUTANTS AND COMPOSITION FOR PROTECTION AGAINST ATMOSPHERIC POLLUTANTS” (SHOWA DENKO K.K., priority 2019, published 2022).

Legend:
NRF2 gene = assay: Effect of promoting expression of NRF2 gene (quantitative real-time PCR, standardized to GAPDH) in NHEK exposed to atmospheric dust; format: cell-based, human; settings: sample 10 μM for 24 hours, then atmospheric dust added 500 μg/mL for 48 hours, relative to control without atmospheric dust = 1
Method: The effect of Na tocopherol phosphate on promoting the expression of an NRF2 gene in normal human epidermal keratinocytes (NHEK, manufactured by KURABO INDUSTRIES LTD.) was measured under the following conditions.
The NHEK cells were seeded in a HuMedia KG2 medium manufactured by KURABO INDUSTRIES LTD. at the seeding density of 10000 cells/cm^2, and cultured for 24 hours under the conditions of 37° C. and 5% CO2. Next, a sample, in which Na tocopherol phosphate or tocopherol acetate was dissolved in an aqueous solution of 0.05% (V/V) ethanol, was added to the culture medium so that the final concentration of Na tocopherol phosphate or tocopherol acetate was 10 μM, and culturing was performed for 24 hours. Furthermore, one obtained by adding 5 μL of the aqueous solution of 0.05% (V/V) ethanol to the culture medium and culturing for 24 hours was also prepared. […] Using this cDNA as a template, the expression level of the NRF2 gene was quantitatively determined by quantitative real-time PCR using a primer specific to the NRF2 gene (Perfect Real Time Primer, manufactured by Takara Bio Inc.). As an internal standard gene, the expression level of GAPDH was quantitatively determined (primer used: Perfect Real Time Primer, manufactured by Takara Bio Inc.), and the expression level of the NRF2 gene was standardized based on the expression level of GAPDH. […]

[1] = test system: normal human epidermal keratinocytes (NHEK); assay: Effect of suppressing ROS production (dichlorofluorescein diacetate ROS assay kit) in NHEK exposed to atmospheric dust; format: cell-based; settings: sample 10 μM for 24 hours, then atmospheric dust (NIST 1648a) added 500 μg/mL for 48 hours, fluorescence relative to control without atmospheric dust = 1
Method: The effect of Na tocopherol phosphate on suppressing ROS production in normal human epidermal keratinocytes (NHEK, manufactured by KURABO INDUSTRIES LTD.) was measured under the following conditions.
The NHEK cells were seeded in a HuMedia KG2 medium manufactured by KURABO INDUSTRIES LTD. at the seeding density of 10000 cells/cm^2, and cultured for 24 hours under the conditions of 37° C. and 5% CO2. Next, a sample, in which Na tocopherol phosphate or tocopherol acetate was dissolved in an aqueous solution of 0.05% (V/V) ethanol, was added to the culture medium so that the final concentration of Na tocopherol phosphate or tocopherol acetate was 10 μM, and culturing was performed for 24 hours under the conditions of 37° C. and 5% CO2. Furthermore, one obtained by adding 1 μL of the aqueous solution of 0.05% (V/V) ethanol to the culture medium and culturing for 24 hours was also prepared. […] Thereafter, the ROS production amount was measured using a ROS assay kit (manufactured by OZ BIOSCIENCES). […] After washing with PBS again, 100 μL of PBS was added, and the fluorescence intensity at an excitation wavelength of 485 nm/an absorption wavelength of 535 nm was measured with a microplate reader i-Control (manufactured by Tecan Group Ltd.). […]

[2] = test system: cell line derived from Lewis lung carcinoma (LLC); assay: Effect of suppressing proliferation of cancer cells (WST-8) exposed to atmospheric dust; format: cell-based; settings: sample 10 μM for 24 hours, then atmospheric dust (NIST 1648a) added 500 μg/mL for 48 hours, absorbance 450 nm relative to control without atmospheric dust = 1
Method: The effect of Na tocopherol phosphate on suppressing the proliferation of cancer cells in a cell line derived from Lewis lung carcinoma (LLC, JCRB Cell Bank) was measured under the following conditions.
The LLC cells were seeded at the seeding density of 50000 cells/cm^2 in a culture medium in which a Ham F10 medium and an L15 medium (both manufactured by Sigma-Aldrich) were mixed at the ratio of 3:7 (volume ratio), and cultured for 24 hours under the conditions of 37° C. and 5% CO2. Next, a sample, in which Na tocopherol phosphate or tocopherol acetate was dissolved in an aqueous solution of 0.05% (V/V) ethanol, was added to the culture medium so that the final concentration of Na tocopherol phosphate or tocopherol acetate was 10 μM, and culturing was performed for 24 hours. Furthermore, one obtained by adding 1 μL of the aqueous solution of 0.05% (VN) ethanol to the culture medium and culturing for 24 hours was also prepared. […] Thereafter, the culture medium was replaced with a medium containing 10% (VN) of WST-8 of Nacalai Tesque Inc., and after further culturing for 3 hours, the absorbance at the wavelength of 450 nm was measured with a microplate reader i-Control (manufactured by Tecan Group Ltd.). […]

[3] = test system: cell line derived from Lewis lung carcinoma (LLC); assay: Effect of suppressing invasion of cancer cells (CytoSelect invasion assay kit) exposed to atmospheric dust; format: cell-based; settings: sample 10 μM for 24 hours, then atmospheric dust (NIST 1648a) added 500 μg/mL for 6 hours + 18 hours, fluorescence relative to control without atmospheric dust = 1
Method: The effect of Na tocopherol phosphate on suppressing the invasion of cells in a cell line derived from Lewis lung carcinoma (LLC, JCRB Cell Bank) was measured under the following conditions. A CytoSelect invasion assay kit manufactured by Cell Biolabs, Inc. was used for a test.
The LLC cells were seeded in a chamber plate for invasion tests attached to the above-mentioned invasion assay kit so that the concentration was 100000 cells/mL using a culture medium in which a Ham F10 medium and an L15 medium (both manufactured by Sigma-Aldrich) were mixed at the ratio of 3:7 (volume ratio), and cultured for 24 hours under the conditions of 37° C. and 5% CO2. Next, a sample, in which Na tocopherol phosphate or tocopherol acetate was dissolved in an aqueous solution of 0.05% (V/V) ethanol, was added to the culture medium so that the final concentration of Na tocopherol phosphate or tocopherol acetate was 10 μM, and culturing was further performed for 24 hours under the conditions of 37° C. and 5% CO2. […] Thereafter, the cells were stained using the above-mentioned invasion assay kit, and the fluorescence intensity at an excitation wavelength of 480 nm/an absorption wavelength of 570 nm was measured with a microplate reader i-Control (manufactured by Tecan Group Ltd.). […]

CC(=O)Oc1c(C)c(C)c2c(c1C)CCC(C)(CCC[C@H](C)CCC[C@H](C)CCCC(C)C)O2 (stereo partly shown) [Tocopherol acetate, tocopherol acetate]
Relative gene expression level NRF2 (NRF2 gene): 0.71 | Relative ROS production amount [1]: 1.67 | Relative cell proliferation amount [2]: 3.98 | Relative cell invasion [3]: 2.08
